The values that follow come from PubChem BioAssay (NCI).

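Values below derive from 48-hour exposures of cells grown in 96-well plates, with endpoints linearly interpolated between the two concentrations bracketing the appropriate inhibition level. GI50 = concentration required for 50% inhibition of growth. At the TGI there is no net growth.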

Test systems include A549 NSCLC; HCT-15 colon; HL-60(TB) leukemia; HOP-92 NSCLC; HS 578T breast; MDA-MB-231 breast; OVCAR-8 ovarian; SN12C renal; UACC-257 melanoma; UO-31 renal.
Assay in all cases: NCI tumour cell line growth inhibition, 48 h

Regarding `Fc1ccc(-c2c(-c3ccncc3)[nH]c3nccnc23)cc1`, the GI50 is 7.35 µM with A549 NSCLC; 8.28 µM with HCT-15 colon; 16.3 µM in the assay with HL-60(TB) leukemia; over 25 µM with HOP-92 NSCLC; 8.03 µM in the assay with HS 578T breast; over 14.4 µM with MDA-MB-231 breast. Further, the GI50 with OVCAR-8 ovarian was 10.4 µM; in the assay on SN12C renal, 7.84 µM; with UACC-257 melanoma, over 20 µM; in the assay on UO-31 renal, 3.43 µM. The TGI with A549 NSCLC, with HCT-15 colon, with HL-60(TB) leukemia, in the assay with HOP-92 NSCLC, in the assay on HS 578T breast and in the assay with MDA-MB-231 breast was over 25 µM throughout. For the same molecule, the TGI in the assay with OVCAR-8 ovarian, in the assay on SN12C renal, in the assay on UACC-257 melanoma and with UO-31 renal was over 25 µM each time.
Take `N=C1C(c2nc3ccccc3s2)=C(O)CN1c1cc(Cl)cc(Cl)c1`: the GI50 is over 100 µM in the assay with A549 NSCLC; 0.705 µM in the assay on HCT-15 colon; over 100 µM in the assay on HL-60(TB) leukemia; 59.3 µM in the assay with HOP-92 NSCLC; 16.1 µM in the assay with HS 578T breast; 23.6 µM in the assay with MDA-MB-231 breast. The GI50 in the assay with OVCAR-8 ovarian was over 100 µM; in the assay with SN12C renal, over 100 µM; with UACC-257 melanoma it was 40.2 µM; in the assay with UO-31 renal, 91.3 µM. Also, the TGI with A549 NSCLC is over 100 µM; with HCT-15 colon, over 100 µM; in the assay with HL-60(TB) leukemia, over 100 µM; with HOP-92 NSCLC, over 100 µM; with HS 578T breast it was 64.8 µM; in the assay with MDA-MB-231 breast, over 100 µM. Besides, the TGI in the assay with OVCAR-8 ovarian, with SN12C renal, with UACC-257 melanoma and in the assay with UO-31 renal was over 100 µM in each case.
For `COc1cc(Cn2c(SCC(=O)Nc3ccc(Cl)cc3)nc3ccccc3c2=O)cc(OC)c1OC`, the GI50 in the assay on A549 NSCLC is 4.66 µM; in the assay on HCT-15 colon, 17 µM; with HL-60(TB) leukemia it was over 100 µM; with HOP-92 NSCLC it was 2.26 µM; in the assay with HS 578T breast, 3.95 µM; in the assay on MDA-MB-231 breast, 3.08 µM. In addition, the GI50 is 4.82 µM in the assay with OVCAR-8 ovarian, 16.9 µM with SN12C renal, 6.04 µM with UACC-257 melanoma and 3.75 µM in the assay on UO-31 renal. Besides, the TGI was 21.1 µM with A549 NSCLC; over 100 µM in the assay on HCT-15 colon; over 100 µM in the assay on HL-60(TB) leukemia; 9.12 µM with HOP-92 NSCLC; 40.3 µM with HS 578T breast; 13 µM with MDA-MB-231 breast. Also, the TGI in the assay with OVCAR-8 ovarian was 16.1 µM; with SN12C renal, over 100 µM; in the assay on UACC-257 melanoma it was 28 µM; in the assay on UO-31 renal, 32.4 µM.
Regarding `N[C@@H](CSSC[C@H](N)C(=O)N1CCn2cc(-c3ccccc3)nc2[C@@H]1CC1CCCCC1)C(=O)N1CCn2cc(-c3ccccc3)nc2[C@@H]1CC1CCCCC1`, the GI50 in the assay on A549 NSCLC was 1.37 µM; with HCT-15 colon it was 1.82 µM; in the assay with HL-60(TB) leukemia it was 2.13 µM; in the assay with HOP-92 NSCLC it was 2.45 µM; with HS 578T breast it was 3.1 µM; in the assay on MDA-MB-231 breast, 1.74 µM. The GI50 in the assay with OVCAR-8 ovarian was 1.87 µM; in the assay on SN12C renal, 1.62 µM; in the assay with UACC-257 melanoma it was 1.4 µM; in the assay on UO-31 renal, 1.69 µM. The TGI in the assay with A549 NSCLC was 3.05 µM; in the assay with HCT-15 colon, 3.71 µM; in the assay with HL-60(TB) leukemia, over 19.7 µM; in the assay on HOP-92 NSCLC, 5.8 µM; in the assay with HS 578T breast, over 100 µM; in the assay with MDA-MB-231 breast it was 3.68 µM. Further, the TGI stood at 5.76 µM in the assay on OVCAR-8 ovarian, 3.56 µM in the assay on SN12C renal, 3.32 µM with UACC-257 melanoma and 3.61 µM in the assay on UO-31 renal.
In the case of `CC1COCCN1CC#CCOC(=O)c1cc2ccccc2oc1=O` (centres undefined), the GI50 with A549 NSCLC was over 100 µM; in the assay on HCT-15 colon it was over 100 µM; in the assay with HL-60(TB) leukemia, over 100 µM; in the assay with HOP-92 NSCLC, 72.5 µM; in the assay with HS 578T breast, 62.4 µM; in the assay on MDA-MB-231 breast, over 100 µM. The GI50 with OVCAR-8 ovarian, in the assay with SN12C renal, with UACC-257 melanoma and with UO-31 renal was over 100 µM throughout. Further, the TGI in the assay on A549 NSCLC, with HCT-15 colon, in the assay with HL-60(TB) leukemia, in the assay on HOP-92 NSCLC, in the assay on HS 578T breast and with MDA-MB-231 breast was over 100 µM each time. Further, the TGI in the assay on OVCAR-8 ovarian, in the assay on SN12C renal, with UACC-257 melanoma and with UO-31 renal was over 100 µM throughout.
Consider `CCN1C(=O)N(CC)C2C1NN=c1s/c(=C\c3ccc(OC)cc3)c(=O)n12` (centres undefined), for which the GI50 in the assay on A549 NSCLC is 0.247 µM; in the assay with HCT-15 colon, 0.104 µM; with HL-60(TB) leukemia, 0.174 µM; in the assay with HOP-92 NSCLC, 3.25 µM; in the assay with HS 578T breast it was 0.219 µM; in the assay on MDA-MB-231 breast it was 0.353 µM. In addition, the GI50 was 0.369 µM in the assay with OVCAR-8 ovarian, 0.454 µM in the assay with SN12C renal, over 100 µM in the assay on UACC-257 melanoma and 0.653 µM with UO-31 renal. Further, the TGI is over 100 µM in the assay on A549 NSCLC; over 100 µM with HCT-15 colon; 0.477 µM in the assay with HL-60(TB) leukemia; over 100 µM in the assay on HOP-92 NSCLC; over 100 µM with HS 578T breast; over 39 µM in the assay on MDA-MB-231 breast. Moreover, the TGI in the assay with SN12C renal, in the assay on UACC-257 melanoma and in the assay on UO-31 renal was over 100 µM in each case.
